Measurements from patent publication US20130216649A1, “MOUTH-MOISTENING GUM COMPOSITIONS AND PRODUCTS CONTAINING THE SAME” (Kraft Foods Global Brands LLC, priority 2010, published 2013).

Experiment: Effect of the spilanthol amount in a chewing gum formulation (taste, mouth moistening)
Assay type: in vivo
Details: below 75 ppm in a chewing gum formulation

C/C=C/C=C\CC/C=C/C(=O)NCC(C)C [spilanthol, N-isobutyl-2E,6Z,8E-decatrienamide]
effectiveness for mouth-moistening purposes: insufficient
